The results in this text go back to patent US10738007B2, “Amide compounds as kinase inhibitors, compositions and methods of treatment” (TRANSLATIONAL DRUG DEVELOPMENT, LLC, priority 2016, dated 2020).

One may read the pIC50 as the negative decadic logarithm of the IC50, by convention in mol/L. By AUC(0-inf) is commonly meant the area under the concentration-time curve extrapolated to infinity. For orientation: Cmax means the highest concentration seen after dosing. As a reminder, the Tmax is the time from dosing to the highest level. Broadly, the half-life is the time needed for the level to fall by half in the phase considered. High values mean slow loss, low ones fast loss. Broadly, the CL/F is the apparent clearance, not corrected for the fraction that reaches the circulation. Broadly, the bioavailability is the share of a dose that reaches the circulation, judged against a reference dose that is usually intravenous.

The target of one data set is ROCK2 (Homo sapiens (Human), UniProt O75116). Description: ROCK2 kinase inhibition assay (peptide phosphorylation, LABCHIP 3000). It counts as biochemical. The settings on record: 7 μM ATP, 2.5 nM ROCK2, 3 hours at 25° C.
Chain of ROCK2 (O75116 whole entry, species assumed): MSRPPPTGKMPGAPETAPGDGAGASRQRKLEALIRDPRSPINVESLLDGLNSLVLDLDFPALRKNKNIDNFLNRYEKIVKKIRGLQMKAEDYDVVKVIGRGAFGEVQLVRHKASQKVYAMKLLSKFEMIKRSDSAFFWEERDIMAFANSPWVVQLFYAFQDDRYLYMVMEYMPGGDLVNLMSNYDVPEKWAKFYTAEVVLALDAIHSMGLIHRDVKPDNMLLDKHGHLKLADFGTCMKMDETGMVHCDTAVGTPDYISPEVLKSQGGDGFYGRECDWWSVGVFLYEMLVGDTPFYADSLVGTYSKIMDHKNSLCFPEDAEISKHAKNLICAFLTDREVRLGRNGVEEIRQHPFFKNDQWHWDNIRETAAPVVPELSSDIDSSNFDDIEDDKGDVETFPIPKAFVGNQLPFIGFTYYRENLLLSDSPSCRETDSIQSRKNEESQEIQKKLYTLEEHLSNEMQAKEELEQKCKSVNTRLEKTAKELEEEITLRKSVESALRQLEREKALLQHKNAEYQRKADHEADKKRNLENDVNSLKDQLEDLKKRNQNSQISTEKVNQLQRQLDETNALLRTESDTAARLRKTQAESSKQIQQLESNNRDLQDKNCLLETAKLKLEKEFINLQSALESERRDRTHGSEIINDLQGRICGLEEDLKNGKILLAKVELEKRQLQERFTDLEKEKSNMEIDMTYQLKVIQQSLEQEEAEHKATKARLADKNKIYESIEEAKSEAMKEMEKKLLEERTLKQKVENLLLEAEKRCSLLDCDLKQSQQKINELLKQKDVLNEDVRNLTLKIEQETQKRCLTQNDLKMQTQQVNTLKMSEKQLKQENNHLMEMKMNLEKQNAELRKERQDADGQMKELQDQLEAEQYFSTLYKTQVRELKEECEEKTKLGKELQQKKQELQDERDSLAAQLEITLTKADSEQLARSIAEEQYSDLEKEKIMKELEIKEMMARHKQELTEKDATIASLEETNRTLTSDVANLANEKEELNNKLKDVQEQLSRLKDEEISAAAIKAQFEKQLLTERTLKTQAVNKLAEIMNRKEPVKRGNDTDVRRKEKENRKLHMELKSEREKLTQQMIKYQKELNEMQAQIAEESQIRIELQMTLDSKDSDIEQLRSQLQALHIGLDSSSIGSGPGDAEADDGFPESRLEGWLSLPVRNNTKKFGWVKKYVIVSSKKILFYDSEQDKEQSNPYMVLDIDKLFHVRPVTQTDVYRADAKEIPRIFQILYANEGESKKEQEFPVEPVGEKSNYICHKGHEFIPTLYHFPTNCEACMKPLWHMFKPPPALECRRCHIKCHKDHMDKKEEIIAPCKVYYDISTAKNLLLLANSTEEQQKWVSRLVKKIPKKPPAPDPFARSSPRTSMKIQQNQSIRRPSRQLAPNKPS
For another data set, the system named is MV411 cell line. As to the kind of experiment: Cell viability assay ([…]-GLO), MV411. Format: cell-based. Conditions: for pIC50: Homo sapiens, MV4-11, MV411 (ITD-FLT3+), 72 hours treatment; for FLT3-ITD+ Selectivity (K562/MV411): ratio K562/MV411.
In the next data set the test system is K562 cell line. Description: Cell viability assay ([…]-GLO), K562. Format: cell-based. The settings on record: Homo sapiens; K562 (does not express ITD-FLT3), 72 hours treatment. The method in brief:
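Cells seeded 2.5×10^3-5×10^3/well, grown 24 h, then exposed to compounds for 72 h. Viability read as ATP luminescence (CellTiter-Glo-type) after 37° C incubation; % growth = test/vehicle ×100. IC50 from sigmoidal dose-response fit.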

Another data set addresses ROCK1 (Homo sapiens (Human), UniProt Q13464). As to the kind of experiment: ROCK1 kinase inhibition assay (peptide phosphorylation, LABCHIP 3000). The settings on record: 5 μM ATP, 3 nM ROCK1, 3 hours at 25° C. It counts as biochemical.
A short description of data set [1]: Pharmacokinetic activity in mice. The settings on record: for AUC(0-t): read-out: AUC0-8. It counts as in vivo. The protocol:
Compounds were individually and accurately weighed out to produce a stock solution in Dimethyl-sulfoxide (DMSO) at a concentration of 2 mg/mL and stored at −20° C. From the stock solution, a working stock was prepared by diluting it in Methanol-Water 50:50 (v/v) at 20 μg/mL for calibration curve preparation and stored at 4° C. Standards used for quantitation and quality control samples (QCs) were prepared on the same day of sample processing using blank plasma obtained from non-treated mice. For each analyte, standards were prepared through serial dilutions of the working stock at concentrations of 0.1, 0.5, 1.0, 10, 50, 100, 500, and 1000 ng/mL; QCs were prepared at intermediate concentrations of 0.75, 7.5, 75, and 750 ng/mL. Plasma samples were stored at −80° C. until ready for analysis and then placed on ice for thawing. An aliquot of […] samples, standards, or QCs, were transferred into a 96-well extraction plate according to a pre-defined layout. An appropriate volume of Methanol-Formic Acid 99.9-0.1 containing internal standard (Verapamil at 25 ng/mL) was added to each well and the samples were extracted under vacuum. Eluent was then transferred into a LCMS plate for analysis using a suitable column for separation and MRM detection. Concentration of analytes was calculated based on the calibration curve and analyzed for pharmacokinetic parameters by using Non-compartmental analysis (NCA). Parameters such as Cmax, Tmax, half-life, AUC(0-last), AUC(0-∞), volume of distribution (Vss), and clearance (Cl/F) were reported.

pIC50: −log10 of the molar value. Where two headings read alike, the source gives them in different places. Some results are limits rather than exact numbers.

Chain of ROCK1 (Q13464 whole entry, species assumed): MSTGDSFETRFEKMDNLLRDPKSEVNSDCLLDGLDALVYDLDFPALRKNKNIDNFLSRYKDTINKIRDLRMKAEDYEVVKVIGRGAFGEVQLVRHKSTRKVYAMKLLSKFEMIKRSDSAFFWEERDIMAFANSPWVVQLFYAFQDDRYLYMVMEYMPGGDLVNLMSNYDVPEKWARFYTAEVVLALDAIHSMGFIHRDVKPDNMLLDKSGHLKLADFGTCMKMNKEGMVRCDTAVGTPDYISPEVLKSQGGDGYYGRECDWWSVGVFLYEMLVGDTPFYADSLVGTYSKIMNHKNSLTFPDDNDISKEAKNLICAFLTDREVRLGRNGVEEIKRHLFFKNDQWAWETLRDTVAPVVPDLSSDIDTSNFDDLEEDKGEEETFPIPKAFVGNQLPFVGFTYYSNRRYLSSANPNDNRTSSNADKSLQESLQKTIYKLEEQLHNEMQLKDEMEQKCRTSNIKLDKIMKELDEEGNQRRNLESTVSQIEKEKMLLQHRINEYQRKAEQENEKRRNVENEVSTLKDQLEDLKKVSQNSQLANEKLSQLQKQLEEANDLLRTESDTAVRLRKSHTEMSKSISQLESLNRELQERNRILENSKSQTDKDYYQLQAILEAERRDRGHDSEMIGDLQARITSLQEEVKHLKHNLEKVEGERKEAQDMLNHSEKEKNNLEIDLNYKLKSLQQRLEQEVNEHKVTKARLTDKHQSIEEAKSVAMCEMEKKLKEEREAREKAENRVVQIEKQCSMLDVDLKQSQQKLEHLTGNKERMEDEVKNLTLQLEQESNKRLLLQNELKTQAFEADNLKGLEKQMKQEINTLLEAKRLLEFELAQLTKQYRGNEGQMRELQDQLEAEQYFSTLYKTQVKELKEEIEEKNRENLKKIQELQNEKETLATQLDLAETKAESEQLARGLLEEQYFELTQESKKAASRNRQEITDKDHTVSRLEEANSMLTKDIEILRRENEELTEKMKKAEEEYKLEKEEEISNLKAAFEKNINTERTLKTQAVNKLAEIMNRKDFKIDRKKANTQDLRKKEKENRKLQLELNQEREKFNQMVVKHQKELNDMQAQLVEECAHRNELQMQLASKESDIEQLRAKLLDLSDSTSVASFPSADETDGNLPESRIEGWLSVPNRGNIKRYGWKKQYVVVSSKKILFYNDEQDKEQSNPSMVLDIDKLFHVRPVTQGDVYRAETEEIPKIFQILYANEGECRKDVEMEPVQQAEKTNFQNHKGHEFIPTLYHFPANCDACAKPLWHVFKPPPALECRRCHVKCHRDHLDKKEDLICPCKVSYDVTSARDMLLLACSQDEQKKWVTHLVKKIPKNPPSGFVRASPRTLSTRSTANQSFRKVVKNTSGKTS
Procedure for MV411 cell line: Cell viability in the presence of varying concentrations of the above listed compounds at different time points was used to assess cytotoxicity and the effect of the compounds on cell proliferation.
Cell viability was measured by the […] -GlO® cell viability assay from Promega (Madison, Wis.). The […] -GlO Luminescent Cell Viability Assay is a homogeneous method to determine the number of viable cells in culture based on quantitation of the ATP present, which signals the presence of metabolically active cells. Following treatment, […] -GlO® is added to treatment wells and incubated at 37° C. Luminescence values were measured at using a Molecular Devices Spectramax microplate reader.
Cells were grown to 70% confluency, trypsinized, counted, and seeded in 96 well flat-bottom plates at a final concentration of 2.5×10^3-5×10^3 cells/well (Day 0). Cells were allowed to incubate in growth media for 24 hours. Treatment with the test agents or standard agents began on Day 1 and continued for 72 hours. At the 72-hour time point, treatment containing media was removed.
For single agent and combination studies, data from each experiment was collected and expressed as % Cell Growth using the following calculation: % Cell Growth=(ftest/fvehicle)×100
Where ftest is the luminescence of the tested sample, and fvehicle is the luminescence of the vehicle in which the drug is dissolved. Dose response graphs and IC50 values were generated using Prism 6 software (GraphPad) using the following equation: Y=(Top−Bottom)/(1+10^((logIC50-X)−HillSlope))
Where X is the logarithm of the concentration and Y is the response. Y starts at the Bottom and goes to the Top with a sigmoid shape.
The experiments also evaluated the selectivity of the compounds for inhibiting growth of cancer cells carrying a mutation in the Flt3 gene. The MV411 cell line expresses the mutant allele of Flt3 with internal tandem duplications (ITD) of the gene.
Procedure for ROCK1: (§1) The peptide is phosphorylated by the protein kinase ROCK1 or ROCK2. The ROCK1 or ROCK2 enzyme, substrate, and cofactors (ATP and Mg^2+) are combined in a well of a microtiter plate and incubated for 3 hours at 25° C. in the presence or absence of an inhibitor compound. At the end of the incubation, the reaction is quenched by the addition of an EDTA-containing buffer. The substrate and product are separated and quantified electrophoretically using the microfluidic-based LABCHIP® 3000 Drug Discovery System from Caliper Life Sciences (Hopkinton, Mass.).
(§2) The components of the assay mixture are:
10 μM Sodium Orthovanadate
10 LM Beta-Glycerophosphate
(§3) 5 μM ATP (for ROCK1) or 7 μM ATP (for ROCK2)
3 nM ROCK1 or 2.5 nM ROCK2 enzyme
(§4) Substrate and product peptides present in each sample are separated electrophoretically using the LABCHIP® 3000 capillary electrophoresis instrument. […] Change in the relative fluorescence intensity of the substrate and product peaks is the parameter measured reflecting enzyme activity. Capillary electrophoregramms (RDA acquisition files) are analyzed using HTS Well Analyzer software (Caliper Life Sciences, Hopkinton, Mass.). The kinase activity in each sample is determined as the product to sum ratio (PSR): P/(S+P), where P is the peak height of the product peptide and S is the peak height of the substrate peptide. For each compound, enzyme activity is measured at various concentrations (12 concentrations of compound spaced by 3× dilution intervals). Negative control samples (0%-inhibition in the absence of inhibitor) and positive control samples (100%-inhibition in the presence of 20 mM EDTA) are assembled in replicates of four and are used to calculate %-inhibition values for each compound at each concentration. Percent inhibition (Pinh) is determined using the following equation: Pinh=(PSRO %−PSRinh)/(PSRO %−PSR100%)*100
(§5) where PSRinh is the product sum ratio in the presence of inhibitor, PSRO % is the average product sum ratio in the absence of inhibitor, and PSR100% is the average product sum ratio in 100%-inhibition control samples. The IC50 values of inhibitors are determined by fitting the inhibition curves (Pinh versus inhibitor concentration) by the 4-parameter sigmoidal dose-response model using XLfit 4 software (IBDS).
Procedure for ROCK2: as §1, §2
10 μM Sodium Orthovanadate
10 LM Beta-Glycerophosphate
as §3
3 nM ROCK1 or 2.5 nM ROCK2 enzyme
as §4, §5

Consider `O=C(NC1CCCC1)c1cccc([C@@H](CO)NC(=O)c2ccc(-c3ccncc3)cc2)c1` [Compound 10], for which, at ROCK2, the pIC50 is 9.06. Also, in the data set on MV411 cell line, the pIC50 was 6.77 and the “FLT3-ITD+ Selectivity (K562/MV411)” value was found to be 100. Also, the pIC50 in the data set on K562 cell line was 4.77. At ROCK1, this molecule showed a pIC50 of 8.32. Also, in data set [1] (IV - 1 mg/kg), the “AUC % Extrap” value was 0.39%, the Cl/F obs was determined as 2.83 mL/min/kg and the R-sq was determined as 0.90. Besides, in data set [1] (PO - 5 mg/kg), the “AUC % Extrap” value is 0.09% and the R-sq was 0.93. In data set [1] (mouse, plasma, IV - 1 mg/kg), the AUC(0-inf) was 5370 ng·h/mL, the C0 came to 7000 ng/mL, the Cmax was 4180 ng/mL and the Tmax was determined as 0.25 h. In data set [1] (mouse, plasma, IV - 1 mg/kg), the half-life is 3.86 h and the AUC(0-t) came out at 5350 ng·h/mL. In addition, the Vd in data set [1] (mouse, plasma, IV - 1 mg/kg, read-out: Vss) worked out at 0.32 L/kg. In data set [1] (mouse, plasma, PO - 5 mg/kg), the AUC(0-inf) turned out to be 51500 ng·h/mL, the CL/F is 1.5 mL/min/kg, the peak level (Cmax) was 13100 ng/mL and the Tmax stood at 1 h. In data set [1] (mouse, plasma, PO - 5 mg/kg), the half-life was 2.32 h and the AUC(0-t) turned out to be 51400 ng·h/mL. Further, the bioavailability in data set [1] (mouse, plasma, PO - 5 mg/kg vs IV - 1 mg/kg) was greater than 100%. The Vd/F in data set [1] (mouse, plasma, PO - 5 mg/kg, read-out: Vz/F obs) was 0.3 L/kg.

As for `O=C(NCC1CCC(F)(F)CC1)c1cccc([C@@H](CO)NC(=O)c2ccc(-c3ccncc3)cc2)c1` [Compound 24], the pIC50 against ROCK2 is 8.92; in the data set with MV411 cell line, 5.82; in the data set with K562 cell line, 4.55; against ROCK1, 8.66. Further, the “FLT3-ITD+ Selectivity (K562/MV411)” value in the data set on MV411 cell line came to 19.

Turning to `O=C(NC1CCCCC1)c1cccc([C@@H](CO)NC(=O)c2ccc(-c3ccncc3)cc2)c1` [Compound 26], the pIC50 at ROCK2 is 8.82; in the data set with MV411 cell line it was 5.13; in the data set with K562 cell line, 4.32; against ROCK1 it was 8.43. Besides, the “FLT3-ITD+ Selectivity (K562/MV411)” value with MV411 cell line stood at 6.

Consider `Cn1ccc2ccc(NC(=O)c3cccc([C@@H](CO)NC(=O)c4ccc(-c5ccncc5)cc4)c3)cc2c1=O` [Compound 28], for which the pIC50 on ROCK2 was 8.96; in the data set on MV411 cell line, 5.62; in the data set on K562 cell line, less than 4.00; on ROCK1 it was 8.80. Also, in the data set with MV411 cell line, the “FLT3-ITD+ Selectivity (K562/MV411)” value is given as greater than 42.

In the case of `CN(C)Cc1ccc(CNC(=O)c2cccc([C@@H](CO)NC(=O)c3ccc(-c4ccncc4)cc3)c2)cc1` [Compound 32], the pIC50 against ROCK2 is 9.05; in the data set with MV411 cell line, 7.22; in the data set on K562 cell line it was 4.43; against ROCK1, 8.85. Moreover, the “FLT3-ITD+ Selectivity (K562/MV411)” value in the data set on MV411 cell line was 619.

Turning to `O=C(NC1CCCC1)c1cccc([C@@H](CO)NC(=O)c2cccc(-c3ccncc3)c2)c1` [Compound 63], the pIC50 against ROCK2 was 8.39; with MV411 cell line it was 6.85; in the data set with K562 cell line, less than 4.00; against ROCK1, 7.85. Besides, in the data set with MV411 cell line, the “FLT3-ITD+ Selectivity (K562/MV411)” value is reported as greater than 721.

For `Cc1ccc(-c2ccncc2)cc1C(=O)N[C@H](CO)c1cccc(C(=O)NC2CCCC2)c1` [Compound 64], the pIC50 was 8.28 against ROCK2, 5.83 in the data set on MV411 cell line, less than 4.00 in the data set on K562 cell line and 7.77 at ROCK1. Moreover, in the data set with MV411 cell line, the “FLT3-ITD+ Selectivity (K562/MV411)” value is recorded as greater than 68.

In the case of `CCc1ccc(-c2ccncc2)cc1C(=O)N[C@H](CO)c1cccc(C(=O)NC2CCCC2)c1` [Compound 70], the pIC50 on ROCK2 is 9.05; with MV411 cell line, 6.51; with K562 cell line, 4.07; against ROCK1 it was 8.42. Further, the “FLT3-ITD+ Selectivity (K562/MV411)” value with MV411 cell line is recorded as 275.

On to `C[C@@H](NC(=O)c1ccc(-c2ccncc2)cc1)c1cccc(C(=O)NC2CC2)c1` [Compound 76], for which the pIC50 is 8.92 at ROCK2, 6.32 in the data set on MV411 cell line, 4.24 in the data set on K562 cell line and 8.62 at ROCK1. In addition, the “FLT3-ITD+ Selectivity (K562/MV411)” value with MV411 cell line came to 120.

Take `COC(=O)N1CCC(NC(=O)c2cccc([C@@H](CO)NC(=O)c3ccc(-c4ccncc4)cc3)c2)CC1` [Compound 77]: the pIC50 at ROCK2 is 9.03; with MV411 cell line, 7.70; in the data set on K562 cell line, less than 4.00; on ROCK1, 8.68. The “FLT3-ITD+ Selectivity (K562/MV411)” value with MV411 cell line is given as greater than 5000.

With `COC(=O)N1CCC(CNC(=O)c2cccc([C@@H](CO)NC(=O)c3ccc(-c4ccncc4)cc3)c2)CC1` [Compound 78], the negative-log IC50 (pIC50) at ROCK2 is 9.24; in the data set with MV411 cell line, 7.52; with K562 cell line, less than 4.00; against ROCK1, 8.77. Also, the “FLT3-ITD+ Selectivity (K562/MV411)” value in the data set with MV411 cell line is reported as greater than 3333.

In the case of `O=C(NC1CCN(CC(F)(F)F)CC1)c1cccc([C@@H](CO)NC(=O)c2ccc(-c3ccncc3)cc2)c1` [Compound 79], the pIC50 against ROCK2 is 9.17; with MV411 cell line it was 7.52; in the data set with K562 cell line it was less than 4.00; at ROCK1, 8.72. Moreover, the “FLT3-ITD+ Selectivity (K562/MV411)” value with MV411 cell line is on record as greater than 3333.

Take `COc1cc(-c2cn[nH]c2)ccc1C(=O)N[C@H](CO)c1cccc(C(=O)NC2CCCC2)c1` [Compound 81]: the negative logarithm of the IC50 (pIC50) is 9.06 against ROCK2, 6.92 in the data set on MV411 cell line, less than 4.00 with K562 cell line and 8.49 against ROCK1. In addition, the “FLT3-ITD+ Selectivity (K562/MV411)” value with MV411 cell line is reported as 833.

Regarding `CN(C)Cc1cccc(CNC(=O)c2cccc([C@@H](CO)NC(=O)c3ccc(-c4cn[nH]c4)cc3)c2)c1` [Compound 82], the pIC50 on ROCK2 is 9.19; in the data set on MV411 cell line it was 6.21; in the data set with K562 cell line, less than 4.00; on ROCK1 it was 8.70. Besides, the “FLT3-ITD+ Selectivity (K562/MV411)” value in the data set with MV411 cell line is 166.

Turning to `CCOc1cc(-c2cn[nH]c2)ccc1C(=O)N[C@H](C)c1cccc(C(=O)NC2CCCC2)c1` [Compound 103], the pIC50 was 9.28 on ROCK2, 6.85 in the data set with MV411 cell line, 5.10 in the data set with K562 cell line and 8.82 at ROCK1. The “FLT3-ITD+ Selectivity (K562/MV411)” value with MV411 cell line is recorded as 59.

In the case of `COCCOc1cc(-c2cn[nH]c2)ccc1C(=O)N[C@H](C)c1cccc(C(=O)NC2CCCC2)c1` [Compound 115], the pIC50 on ROCK2 was 8.99; with MV411 cell line it was 6.62; in the data set with K562 cell line, 4.35; at ROCK1, 8.41. Further, the “FLT3-ITD+ Selectivity (K562/MV411)” value in the data set with MV411 cell line came to 188.

For `CN1CCc2ccc(NC(=O)c3cccc(CNC(=O)c4ccc(-c5ccncc5)cc4)c3)cc2C1` [Compound B, reference compound], the pIC50 on ROCK2 is 8.06; in the data set with MV411 cell line it was 5.89; in the data set with K562 cell line it was 4.70; at ROCK1 it was 8.00. Moreover, in the data set on MV411 cell line, the “FLT3-ITD+ Selectivity (K562/MV411)” value amounted to 15.
